# Laboratory results from EP0267319A1, “Anti-spasmodic agents having a ring in the main chain” (United Pharmaceuticals, Inc., priority 1986, dated 1988).
# Structures can show the parent of a compound that is named as a salt.
# Tested on: rabbit urinary bladder strip
# Assay: relaxant effect on bethanechol-contracted rabbit urinary bladder strips (organ bath)
# Format: cell-based
# Conditions: for Decrease in force of contraction of rabbit bladder strip / Increase in length of rabbit bladder strip: strips pre-contracted with bethanechol 150 µM; for Increase in length of rabbit bladder strip: cumulative dosing, read 5 minutes after addition; for % background relaxation: term not explained
# Method: The pharmological actions of one anti-spasmodic compound was studied in a rabbit urinary bladder strip preparation. In general, longitudinal strips were prepared from the base of freshly isolated rabbit bladders and were then suspended under near-physiological conditions in tissue baths. The strips were attached to force transducers and both contractile and relaxant activity was measured. To measure the relaxant effects on the anti-spasmodic compounds on previously-contracted bladder strips, the strips were initially exposed to the muscarinic receptor agonist bethanechol and allowed to reach a steady level of contractile activity for 20 minutes. At this point cumulative dose-responses to the compound was recorded. The rabbit abdomens were opened through a vertical midline incision. The bladder and urethra were dissected free of all surrounding tissues, removed and placed in aerated (95% O₂:5% CO₂) Kreb's-bicarbonate buffer (pH:7.4) of the following composition ([…]):KCl 4.6, CaCl₂·2H₂O 2.5, KH₂PO₄ 1.2, MgSO₄·7H₂O 1.2, NaCl 118.2, NaHCO₃ 24.8, and glucose 10.0. Longitudinal muscle strips were prepared from the bladder base (approximately 6 mm x 4 mm) and suspended in an organ bath containing Kreb's buffer (37°C) which was continuously aerated with O₂:CO₂ (95%:5%). Tissues were allowed to equilibrate to a tension of 2 gm for sixty minutes during which time buffer was replaced at 20 minute intervals. The contractile and relaxant responses of the muscle strips were measured isometrically with a Statham UC3 force-displacement transducer and recorded on an Electronics for Medicine DR8 oscillographic recorder. Bethanechol was employed as the representative cholinergic agonist and, following equilibration, was added to the baths for a final concentration of 150 µM. The tissues were allowed 20 minutes to achieve a maintained level of contraction in response to bethanechol and, at this point, cumulative dose-response measurements for one anti-spasmodic compound were started at concentrations ranging from 10⁻⁸ M to 10⁻⁴M. Solutions were added in volumes up to 100 µl and were prepared fresh each day by dissolving them in distilled:deionzed water. Responses were measured 5 minutes following any particular cumulative addition and were expressed as a percentage of maximal relaxation (e.g. maximal relaxation is the baseline or pre-bethanechol level of muscle tone).
# Dose responses, measured from the standard bethanechol-contracted rabbit bladder strips, at various concentrations of 4-t-butyl-benzoyl-thio-S-(2-diethylaminoethyl)-ester·HCl [drawing 12] are presented in Table I: […]
smiles,measurement,setting,value
CCN(CC)CCSC(=O)c1ccc(C(C)(C)C)cc1 [4-t-butyl-benzoyl-thio-S-(2-diethylaminoethyl)-ester·HCl],Decrease in force of contraction of rabbit bladder strip,10^-4 moles/liter,0.67 gm
same,Increase in length of rabbit bladder strip,10^-4 moles/liter,3.2 cm
same,% background relaxation,10^-4 moles/liter,31.8%
same,Decrease in force of contraction of rabbit bladder strip,10^-5 moles/liter,0.27 gm
same,Increase in length of rabbit bladder strip,10^-5 moles/liter,1.3 cm
same,% background relaxation,10^-5 moles/liter,9.5%
same,Decrease in force of contraction of rabbit bladder strip,10^-6 moles/liter,0.08 gm
same,Increase in length of rabbit bladder strip,10^-6 moles/liter,0.4 cm
same,% background relaxation,10^-6 moles/liter,0.0%
same,Decrease in force of contraction of rabbit bladder strip,10^-7 moles/liter,0.04 gm
same,Increase in length of rabbit bladder strip,10^-7 moles/liter,0.2 cm
same,% background relaxation,10^-7 moles/liter,0.0%
same,Decrease in force of contraction of rabbit bladder strip,10^-8 moles/liter,0.02 gm
same,Increase in length of rabbit bladder strip,10^-8 moles/liter,0.1 cm
same,% background relaxation,10^-8 moles/liter,0.0%
same,inhibition at 100 µM,"Oryctolagus cuniculus, 5 min, 10^-4 moles/liter, maximal relaxation = pre-bethanechol level of muscle tone, read-out: % of maximum relaxation",40.5%
same,inhibition at 10 µM,"Oryctolagus cuniculus, 5 min, 10^-5 moles/liter, maximal relaxation = pre-bethanechol level of muscle tone, read-out: % of maximum relaxation",16.5%
same,inhibition at 1 µM,"Oryctolagus cuniculus, 5 min, 10^-6 moles/liter, maximal relaxation = pre-bethanechol level of muscle tone, read-out: % of maximum relaxation",5.2%
same,inhibition at 0.1 µM,"Oryctolagus cuniculus, 5 min, 10^-7 moles/liter, maximal relaxation = pre-bethanechol level of muscle tone, read-out: % of maximum relaxation",2.6%
same,inhibition at 0.01 µM,"Oryctolagus cuniculus, 5 min, 10^-8 moles/liter, maximal relaxation = pre-bethanechol level of muscle tone, read-out: % of maximum relaxation",1.3%
